Data set [1] relates to KRAS G12C in NCI-H358 cells. The data set can be described thus: pERK inhibition assay, NCI-H358. Format: cell-based, human. The settings on record: Homo sapiens, 4 hours incubation. The method, boiled down: (§1)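 NCI-H358, AGS and SW620 cells in RPMI-1640/10% FBS were plated overnight, then exposed to compound (0.5% DMSO final) for 4 h. After fixation and permeabilization, phospho-ERK was quantified by in-cell ELISA (HRP secondary, TMB, OD450); IC50 from a 4-parameter sigmoidal fit.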

The test system of data set [2] is AGS cells. Briefly: Cell viability assay, AGS. It is filed as cell-based, human. The settings on record: Homo sapiens, 72 hours, Cell Counting Kit-8, read-out: G12D IC50. The method, boiled down:
(§2)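 Cells were plated at 5,000 (NCI-H358) or 2,000 (AGS, SW620) per well and incubated overnight. They were then treated with compound in 0.5% DMSO for 72 h. Viability was read with CCK-8 as OD450 minus OD650 after 2 h, and IC50 came from a 4-parameter sigmoidal fit.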
For orientation: Formazan colour is commonly taken as a measure of viable cells.

For data set [3], the system named is KRAS G12V in SW620. The data set can be described thus: pERK inhibition assay, SW620. Format: cell-based, human. Conditions: Homo sapiens, SW-620, SW620 cells, 4 hours incubation. The procedure, abridged: as §1
Data set [4] concerns the target T1, KRAS G12C-BRAF complex (Homo sapiens (Human), UniProt P01116+P62937, G12C). Briefly: KRAS G12C-BRAF NanoBit assay. Format: cell-based. The settings on record: HEK293 cells, SmBit-KRAS G12C and BRAF RBD-LgBit, 3 hours incubation. The protocol:
This assay is to measure the ability of tested compounds in disruption of the KRAS G12C-BRAF complex at the cellular level, we established the NanoBit cellular assay in mammalian HEK293 (ATCC) cells. HEK293 cells were grown and maintained using DMEM medium (Thermo Fisher Scientific) with 10% fetal bovine serum and 1% penicillin/streptomycin. Both KRAS G12C and BRAF RBD were cloned into the NanoBit vectors ([…] vectors system, Promega) with the orientations SmBit-KRAS G12C and BRAF RBD-LgBit, respectively, and co-transfected into HEK293 cells. Cells were then selected with 100 μg/mL Hygromycin B (10687010, Thermo Fisher) and Blasticidin (5 μg/mL) for 4 weeks to get the stable cell pool. On the day of the assay, 75 nL of compound solution was presented in a 384-well assay plate as a 16-point 3-fold dilution starting from a final concentration of 30 μM in DMSO. Then cells were seeded at 10,000 cells/25 μL/well in a 384-well plate. After 3 hours of incubation, 6 μL of volume of Nano-Glo® Live Cell Substrate (Promega) was added into each well. Monitor luminescence using ultra384 model in Envision at 20 minutes. Compounds that facilitate disruption of the KRAS G12C-BRAF RBD complex were identified as those eliciting a decrease of luminescence relative to DMSO control wells.

In data set [5] the target is T1, KRAS G12C-BRAF complex. The data set can be described thus: KRAS-BRAF with CYPA (50 nM) interaction assay (TR-FRET), G12C. It is filed as binding. Conditions: GMPPNP loaded 6His-KRAS, GST-BRAF RBD. As to the method: (§3) In this example, TR-FRET was also used to measure the compound or compound-CYPA dependent disruption of the KRAS G12C-BRAF complex. This protocol was also used to measure disruption of KRAS G12D or KRAS G12V binding to BRAF by a compound of the invention, respectively. In assay buffer containing 25 mM HEPES PH=7.4 (4-(2-hydroxyethyl)-1-piperazineethanesulfonic acid, Thermo, 15630080), 0.002% Tween20, 0.1% BSA, 100 mM NaCl, 5 mM MgCl2, 10 μM GMPPNP (Guanosine 5'-[β,γ-imido]triphosphate trisodium salt hydrate, Sigma, G0635), tagless CYPA, GMPPNP loaded 6His-KRAS proteins, and GST-BRAF^RBD were mixed in a well of a 384-well assay plate at final concentrations of 50 nM, 6.25 nM and 1 nM, respectively. Compound was present in plate wells as a 16-point 3-fold dilution series starting at a final concentration of 10 μM and incubated for 3 hours. A mixture of MAb Anti-6His-XL665 (Cisbio, 61HISXLB) and Mab anti-GST-TB cryptate (Cisbio, 61GSTTLB) was then added at a final concentration of 6.67 nM and 0.21 nM, respectively, and the plate was incubated for an additional 1.5 hours. TR-FRET signal was read on a […] microplate reader (Ex320 nm, Em 665/615 nm). Compounds that facilitate disruption of the KRAS-BRAF complex were identified as those eliciting a decrease in the TR-FRET ratio relative to DMSO control wells.

Data set [6] addresses KRAS G12V binding to BRAF (Homo sapiens (Human), UniProt P01116+P62937, G12V). Briefly: KRAS-BRAF with CYPA (50 nM) interaction assay (TR-FRET), G12V. The settings on record: GMPPNP loaded 6His-KRAS, GST-BRAF RBD. The protocol: as §3
(In general: Time-resolved FRET reads energy transfer from a long-lived donor to a nearby acceptor.)

Data set [7] has as its system NCI-H358 cells. The data set can be described thus: Cell viability assay, NCI-H358. Format: cell-based, human. The settings on record: Homo sapiens, NCI-H358, 72 hours, Cell Counting Kit-8, read-out: G12C IC50. The method, boiled down: as §2
Data set [8] deals with SW620 cells. Briefly: Cell viability assay, SW620. Format: cell-based, human. The settings on record: Homo sapiens, SW-620, SW620, 72 hours, Cell Counting Kit-8, read-out: G12V IC50. The procedure, abridged:
as §2

Data set [9] deals with KRAS G12D binding to BRAF (Homo sapiens (Human), UniProt P01116+P62937, G12D). The data set can be described thus: KRAS-BRAF with CYPA (50 nM) interaction assay (TR-FRET), G12D. Conditions: GMPPNP loaded 6His-KRAS, GST-BRAF RBD. As to the method: as §3
Chain of KRAS G12D binding to BRAF (P01116-2 other isoform, or with tags, fused parts or gaps G12D): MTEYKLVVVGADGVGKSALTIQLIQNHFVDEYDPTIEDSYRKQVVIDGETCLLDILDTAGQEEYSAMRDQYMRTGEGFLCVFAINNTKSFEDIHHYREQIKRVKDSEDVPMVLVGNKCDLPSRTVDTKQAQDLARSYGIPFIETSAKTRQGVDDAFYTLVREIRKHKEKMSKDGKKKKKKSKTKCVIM
Chain of KRAS G12D binding to BRAF (P62937 whole entry): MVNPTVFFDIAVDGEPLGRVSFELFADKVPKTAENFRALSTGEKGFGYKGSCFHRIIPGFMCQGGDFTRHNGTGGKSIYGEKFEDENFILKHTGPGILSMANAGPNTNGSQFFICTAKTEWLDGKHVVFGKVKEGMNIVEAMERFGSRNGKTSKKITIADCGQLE
Data set [10] relates to KRAS G12D in AGS cells. The data set can be described thus: pERK inhibition assay, AGS. It is filed as cell-based, human. The settings on record: Homo sapiens, 4 hours incubation. The method, boiled down:
as §1

Data set [11] in a line: GSH reaction rates (inherent GSH reactivity). Format: in vitro ADME. The settings on record: 1 μM compound, 5 mM GSH, 37° C. The protocol: Therefore Strategy to minimize the GSH metabolism is very critical. Short T1/2 in inherent GSH reaction indicated high GSH reaction rate. Thus T1/2 in inherent GSH reaction assay was determined for the screening of candidates. Reference compounds and compounds of this invention potentially could form conjugation with GSH either through halogenated moieties substitution reaction or direct Michael addition reaction. This test was therefore performed to check GSH reactivity of listed compounds. For inherent GSH reactivity determination, compounds at 1 μM were incubated at 37° C. with and without 5 mM GSH for 0, 0.5, 1, 2, 4 and 6 h in 100 mM potassium phosphate buffer at pH 7.4. At the end of the designated time points, samples were quenched with acetonitrile containing 10 mM N-ethylmaleimide and an internal standard. Quenched samples were centrifuged, and supernatants were analyzed by LC-MS/MS for compound quantification.

The nature of data set [12]: Human hepatocytes stability assay. It is filed as in vitro ADME. As to the method: The hepatocyte stability assay measures the rate of disappearance of a compound from incubations with cryopreserved suspension hepatocytes from human. Positive controls, including Midazolam, Raloxifene and Dextromethorphan, are included in every experiment. Incubations consist of 1 μM tested compound and suspension of human hepatocytes (1×10^6 cells/mL) in supplemented Williams' E Medium with […] and 0.5% Penicillin-streptomycin. The hepatocyte suspension was incubated with intermittent shaking 900 rpm at 37° C., in a 5% CO2 incubator. The reaction was stopped by adding methanol containing internal standard (2 μM Tolbutamide) at 2, 10, 20, 40, 60 and 120 minutes after compound addition, depletion of the parent compound was monitored by LC-MS/MS analysis.

One may read the IC50 as the concentration that gives 50% inhibition.

SMILES strings stand for the structures.

T1 sequence (P01116-2 other isoform, or with tags, fused parts or gaps G12C): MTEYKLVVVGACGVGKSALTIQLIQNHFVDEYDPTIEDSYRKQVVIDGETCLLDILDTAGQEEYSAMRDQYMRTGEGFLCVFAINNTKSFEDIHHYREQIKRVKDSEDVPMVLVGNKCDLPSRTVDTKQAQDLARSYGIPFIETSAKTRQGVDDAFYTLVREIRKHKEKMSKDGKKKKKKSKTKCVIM
T1 sequence (P62937 whole entry): as the sequence (P62937 whole entry) above
Chain of KRAS G12V binding to BRAF (P01116-2 other isoform, or with tags, fused parts or gaps G12V): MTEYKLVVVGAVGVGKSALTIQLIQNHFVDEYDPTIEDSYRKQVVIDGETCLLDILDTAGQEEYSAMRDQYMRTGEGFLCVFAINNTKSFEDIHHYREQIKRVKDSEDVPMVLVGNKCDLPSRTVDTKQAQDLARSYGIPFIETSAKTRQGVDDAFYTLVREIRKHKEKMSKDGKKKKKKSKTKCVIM
Chain of KRAS G12V binding to BRAF (P62937 whole entry): as the sequence (P62937 whole entry) above

`CCn1c(-c2cc(N3CCN(C)CC3)cnc2[C@H](C)OC)c2c3cc(ccc31)-c1cc(O)cc(c1)C[C@H](NC(=O)[C@H](C(C)C)N(C)C(=O)[C@H]1CCN(C(=O)[C@H](F)Cl)C1)C(=O)N1CCC[C@H](N1)C(=O)OCC(C)(C)C2` (atropisomer, axis not shown; (M)) [Example 12, (3S)-1-[(2R)-2-chloro-2-fluoro-acetyl]-N-[(1S)-1-[[(8S,14S)-22-ethyl-4-hydroxy-(21M)-21-[2-[(1S)-1-methoxyethyl]-5-(4-methylpiperazin-1-yl)-3-pyridyl]-18,18-dimethyl-9,15-dioxo-16-oxa-10,22,28-triazapentacyclo[18.5.2.12,6.110,14.023,27]nonacosa-1(26),2,4,6(29),20,23(27),24-heptaen-8-yl]carbamoyl]-2-methyl-propyl]-N-methyl-pyrrolidine-3-carboxamide]: the IC50 in [1] was determined as 6 nM; in [2], 16 nM; in data set [3], 12 nM; in data set [4] it was 37 nM; in data set [5] it was 2 nM; in data set [6], 3 nM. Also, the IC50 in data set [7] stood at 5 nM; in data set [8], 16 nM; in [9], 6 nM; in data set [10], 10 nM.

`CCn1c(-c2cccnc2[C@H](C)OC)c2c3cc(ccc31)-c1cc(O)cc(c1)C[C@H](NC(=O)[C@H](C(C)C)N(C)C(=O)[C@H]1CCN(C(=O)C(F)Cl)C1)C(=O)N1CCC[C@H](N1)C(=O)OCC(C)(C)C2` (stereo partly drawn) [Example 2, (3S)-1-[(2R)-2-chloro-2-fluoro-acetyl]-N-[(1S)-1-[[(8S,14S)-22-ethyl-4-hydroxy-(21M)-21-[2-[(1S)-1-methoxyethyl]-3-pyridyl]-18,18-dimethyl-9,15-dioxo-16-oxa-10,22,28-triazapentacyclo[18.5.2.12,6.110,14.023,27]nonacosa-1(26),2,4,6(29),20,23(27),24-heptaen-8-yl]carbamoyl]-2-methyl-propyl]-N-methyl-pyrrolidine-3-carboxamide]: the IC50 worked out at 3 nM in data set [1]; 83 nM in data set [2]; 37 nM in data set [3]; 68 nM in data set [4]; 6 nM in data set [5]; 25 nM in [6]. Besides, the IC50 turned out to be 2 nM in data set [7], 156 nM in [8], 298 nM in data set [9] and 56 nM in [10].

`CCn1c(-c2cc(N3CCN(C)CC3)cnc2[C@H](C)OC)c2c3cc(ccc31)-c1csc(n1)C[C@H](NC(=O)[C@H](C(C)C)N1CCCC3(CCN(C(=O)[C@H](F)Cl)C3)C1=O)C(=O)N1CCC[C@H](N1)C(=O)OCC(C)(C)C2` (stereo partly drawn) [Example 18, (2S)-2-[2-[(2R)-2-chloro-2-fluoro-acetyl]-6-oxo-2,7-diazaspiro[4.5]decan-7-yl]-N-[(7S,13S)-21-ethyl-(20M)-20-[2-[(1S)-1-methoxyethyl]-5-(4-methylpiperazin-1-yl)-3-pyridyl]-17,17-dimethyl-8,14-dioxo-15-oxa-4-thia-9,21,27,28-tetrazapentacyclo[17.5.2.12,5.19,13.022,26]octacosa-1(25),2,5(28),19,22(26),23-hexaen-7-yl]-3-methyl-butanamide]: the IC50 is 3 nM in data set [1]; 19 nM in data set [2]; 28 nM in data set [3]; 20 nM in [4]; 68 nM in data set [5]; over 10000 nM in data set [6]. Besides, the IC50 in data set [7] is 0.7 nM; in [8], 26 nM; in data set [9], over 10000 nM; in [10] it was 26 nM.

On to `CO[C@@H](C)c1ncc(N2CCN(C)CC2)cc1-c1c2c3cc(ccc3n1CC(F)(F)F)-c1csc(n1)C[C@H](NC(=O)[C@H](C(C)C)N1CCCC3(CCN(C(=O)[C@H](F)Cl)C3)C1=O)C(=O)N1CCC[C@H](N1)C(=O)OCC(C)(C)C2` (stereo partly drawn) [Example 19, (2S)-2-[2-[(2R)-2-chloro-2-fluoro-acetyl]-6-oxo-2,7-diazaspiro[4.5]decan-7-yl]-N-[(7S,13S)-(20M)-20-[2-[(1S)-1-methoxyethyl]-5-(4-methylpiperazin-1-yl)-3-pyridyl]-17,17-dimethyl-8,14-dioxo-21-(2,2,2-trifluoroethyl)-15-oxa-4-thia-9,21,27,28-tetrazapentacyclo[17.5.2.12,5.19,13.022,26]octacosa-1(25),2,5(28),19,22(26),23-hexaen-7-yl]-3-methyl-butanamide], for which the IC50 in data set [1] is 3 nM; in data set [2], 18 nM; in [3] it was 8 nM; in data set [4] it was 21 nM; in [7] it was 0.9 nM; in data set [8], 15 nM. In data set [10], this molecule displayed an IC50 of 28 nM. Also, the “Remaining at 6 hr in GSH (%)” value in data set [11] (pH 7.4, 6 hr) is given as 85%. For the same molecule, in data set [11] (potassium phosphate buffer pH 7.4), the “T1/2(hour) in GSH” value was “stable (If % depletion after 6 hour incubation is less than 20%, compounds were reported as stable)”. Moreover, in data set [12] (1 μM compound, human hepatocytes 1×10^6 cells/mL), the “CL_hep (Human)” value was determined as 10.1 mL/min/kg. Moreover, in data set [12] (human hepatocytes), the “Clearance Category” value is on record as “medium (16.24<CL_hep (mL/min/kg)>6.96 is medium clearance)”.

(Values after patent US20250163072A1, “MACROCYCLIC COMPOUNDS FOR THE TREATMENT OF CANCER” (Hoffmann-La Roche Inc., priority 2021, published 2025).)
